Experimental data published in patent publication US11713470B2, “Targeted gene therapies for pain and other neuro-related disorders” (University of Pittsburgh—Of the Commonwealth System of …, priority 2017, dated 2023).
Entries after “also recorded” stand apart in the source; their conditions may differ.

Columns and labels:
Format in all cases: in vivo, mouse
[1] = molecular target: T1, PSAM4 in dorsal horn CCK+ neurons (Homo sapiens, UniProt P23415+P36544, L131G/Q139L/Y217F); test: Baseline mechanical and heat sensitivity in mice injected with AAV8 mCCK-PSAM4 virus; details: 0.3 mpk i.p., 2 weeks after AAV8 mCCK-PSAM4, 30-60 minutes after drug
Procedure: (§1) The mouse cholecystokinin (CCK) promoter with an added chimeric intron to drive expression of α7^L131G, Q139L, Y217F GlyR (PSAM4) was packaged into AAV2/8 and injected into the dorsal horn of 3-week-old wildtype C57Bl/6 male and female mice. Injection of AAV into the dorsal horn was performed as described previously (Peirs, C. et al. Dorsal Horn Circuits for Persistent Mechanical Pain. Neuron 87, 797-812 (2015)). See FIG. 11 for a schematic of the plasmid used to produce these rAAV particles. Briefly, a 2.5 kb fragment of the mouse CCK promoter was subcloned upstream of the PSAM4 gene with the chimeric intron (135 bp) located in between.
(§2) Mechanical and heat hypersensitivity was tested in adult wildtype male and female C57Bl/6 mice (not injected with mCCK-PSAM4 virus) before and after intraperitoneal injection of (i.p) varenicline (0.1 milligram per kilogram (mpk) (FIG. 13). We also tested these parameters before and 2-5 days after induction of the complete Freund's adjuvant (CFA)-model of inflammatory pain and 7 days after induction of the sural version of the spared nerve injury (SNI) model of neuropathic pain (FIG. 13). Sensitivity to mechanical stimuli was tested by measuring the paw withdrawal threshold to von Frey filaments (PWT) and the paw withdrawal response to a cotton swab (percentage of response) as described previously (Peirs, C. et al. Dorsal Horn Circuits for Persistent Mechanical Pain. Neuron 87, 797-812 (2015)). Heat sensitivity was tested by measuring the withdrawal latency to a radiant heat source using the Hargreaves apparatus (PWL) as described previously (Peirs, C. et al. Dorsal Horn Circuits for Persistent Mechanical Pain. Neuron 87, 797-812 (2015)).
Mice were injected unilaterally in the dorsal horn with AAV8 mCCK-PSAM4 virus and tested two weeks later. […] The ipsilateral plantar hindpaw of the mice was injected with CFA and PWTs and response frequencies tested 3 days later in the absence and presence of varenicline (0.3 mpk, i.p.).

mice lacking PSAM4 = test: Mechanical and heat sensitivity at baseline and after CFA or sural-SNI in wildtype C57Bl/6 mice lacking PSAM4; details: 0.1 mpk i.p.
Procedure: as §2

[2] = molecular target: T1, PSAM4 in dorsal horn CCK+ neurons; test: CFA-induced mechanical allodynia in mice expressing mCCK-PSAM4 in the dorsal horn; details: 0.3 mpk i.p., 3 days after CFA
Procedure: as §1, with “between. […]” for “between.”

[3] = molecular target: T1, PSAM4 in dorsal horn CCK+ neurons; test: Sural-SNI-induced mechanical allodynia in mice expressing mCCK-PSAM4 in the dorsal horn; details: 0.3 mpk i.p., 7 days after sural-SNI
Procedure: as §1, with “between. […]” for “between.”

[4] = uninjured mice without PSAM4, 30-60 minutes after injection

T1 sequence (P36544+P23415 fused P36544:L131G/P36544:Q139L/P36544:Y217F): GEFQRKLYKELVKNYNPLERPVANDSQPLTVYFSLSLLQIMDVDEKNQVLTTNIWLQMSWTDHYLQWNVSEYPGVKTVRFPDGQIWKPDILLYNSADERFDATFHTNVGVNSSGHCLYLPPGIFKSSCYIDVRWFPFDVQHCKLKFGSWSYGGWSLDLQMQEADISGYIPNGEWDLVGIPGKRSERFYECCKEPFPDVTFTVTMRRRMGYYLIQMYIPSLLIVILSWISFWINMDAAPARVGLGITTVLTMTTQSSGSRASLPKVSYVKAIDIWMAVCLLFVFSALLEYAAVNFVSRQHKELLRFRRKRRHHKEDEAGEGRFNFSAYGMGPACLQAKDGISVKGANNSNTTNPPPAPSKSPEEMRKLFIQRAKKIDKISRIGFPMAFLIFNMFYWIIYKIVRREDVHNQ

c1cnc2cc3c(cc2n1)[C@@H]1CNC[C@H]3C1 [varenicline]
baseline PWL [1]: no effect; also recorded: did not alter | baseline PWT [1]: no effect; also recorded: did not alter | baseline percentage response (response frequency to cotton swab) [1]: no effect; also recorded: did not alter | heat hypersensitivity after CFA (mice lacking PSAM4; mice without PSAM4, 2 days after CFA): no effect | mechanical hypersensitivity after CFA (mice lacking PSAM4; mice without PSAM4, 3 days after CFA): no effect | mechanical or heat hypersensitivity after sural-SNI (mice lacking PSAM4; mice without PSAM4, 7 days after sural-SNI): no effect | baseline PWL (withdrawal latency, Hargreaves) (mice lacking PSAM4; [4]): no effect | baseline PWT (paw withdrawal threshold to von Frey filaments) (mice lacking PSAM4; [4]): no effect | baseline response frequency to cotton swab (mice lacking PSAM4; [4]): no effect | PWT to von Frey filaments after CFA [2]: markedly reversed | response frequency to cotton swab after CFA [2]: markedly reversed | PWT to von Frey filaments after sural-SNI [3]: markedly reversed
